This is an account of results in PubChem BioAssay AID332 (DTP/NCI, 2004).

Where “and” joins values, the source holds several entries; their conditions need not be identical. Identical values can stand only once. Results filed as inconclusive are left out.

This assay concerns mice, ADJ-PC-20 plasma cell tumor sc, T/C %. The experiment in a line: NCI In Vivo Anticancer Drug Screen. Data for tumor model ADJ-PC-20 Plasma Cell (subcutaneous) in unknown mice. The following applies: endpoint: mean tumor weight, higher = larger tumour. As to the method:
The antitumor activity of compounds was measured in mice bearing transplantable tumors. Survival or tumor size were measured and the results are expressed as the measurement made in the treated group (T) divided by the measurement made in the vehicle treated control group (C). The tumor model used in this assay is ADJ-PC-20 Plasma Cell (subcutaneous) in unknown mice

[1] abbreviates: dose: 4.0 mg/kg/injection, schedule: Q01DX010 (ip), vehicle: carboxymethylcellulose (CMC).
Where [2] appears, read: dose: 250.0 mg/kg/injection, schedule: Q01DX010 (ip), vehicle: saline.

Regarding `CS(=O)(=O)OCC(O)C(O)COS(C)(=O)=O` (stereo not given), the T/C is, setting by setting: (dose: 99.0 mg/kg/injection, schedule: Q01DX010 (ip), vehicle: saline) 78 % of control; (dose: 188.0 mg/kg/injection, schedule: Q01DX010 (ip), vehicle: saline) 53 % of control; (dose: 375.0 mg/kg/injection, schedule: Q01DX010 (ip), vehicle: saline) 58 % of control; (dose: 750.0 mg/kg/injection, schedule: Q01DX010 (ip), vehicle: saline) 7 % of control.

Turning to `N#Cc1cn(C2OC(CO)C(O)C2O)c2ncnc(N)c12` (stereo not given), the T/C (dose: 0.12 mg/kg/injection, schedule: Q01DX010 (ip), vehicle: carboxymethylcellulose (CMC)) was 47 % of control.

On to `C[C@@H]1C[C@@H]([C@H](O)CC2CC(=O)NC(=O)C2)C(=O)[C@@H](C)C1`, for which the T/C runs as follows: (dose: 1.6 mg/kg/injection, schedule: Q01DX010 (ip), vehicle: water) 91 % of control; (dose: 3.1 mg/kg/injection, schedule: Q01DX010 (ip), vehicle: water) 84 % of control; (dose: 6.25 mg/kg/injection, schedule: Q01DX010 (ip), vehicle: saline) 50 % of control; (dose: 6.3 mg/kg/injection, schedule: Q01DX010 (ip), vehicle: water) 78 % of control.

Take `CN(Cc1cnc2nc(N)nc(N)c2n1)c1ccc(C(=O)N[C@@H](CCC(=O)O)C(=O)O)cc1`: the T/C runs as follows: (dose: 0.04 mg/kg/injection, schedule: Q01DX010 (ip), vehicle: other) 117 % of control; (dose: 0.08 mg/kg/injection, schedule: Q01DX010 (ip), vehicle: other) 107 % of control; (dose: 0.15 mg/kg/injection, schedule: Q01DX010 (ip), vehicle: other) 78 % of control; (dose: 0.31 mg/kg/injection, schedule: Q01DX011 (ip), vehicle: other) 46 % of control; (dose: 0.62 mg/kg/injection, schedule: Q01DX010 (ip), vehicle: other) 68 % of control and 89 % of control; (dose: 0.62 mg/kg/injection, schedule: Q01DX011 (ip), vehicle: other) 59 % of control. For the setting “dose: 0.63 mg/kg/injection, schedule: Q01DX010 (ip), vehicle: other”, the T/C was 88 % of control and 107 % of control.

As for `c1ccc(CNc2ncnc3[nH]ncc23)cc1`, the T/C is 110 % of control under setting [1]; 108 % of control (dose: 8.0 mg/kg/injection, schedule: Q01DX010 (ip), vehicle: carboxymethylcellulose (CMC)); 82 % of control (dose: 16.0 mg/kg/injection, schedule: Q01DX010 (ip), vehicle: carboxymethylcellulose (CMC)); 65 % of control (dose: 32.0 mg/kg/injection, schedule: Q01DX010 (ip), vehicle: carboxymethylcellulose (CMC)).

With `O=c1cnn(C2OC(CO)C(O)C2O)c(=O)[nH]1` (stereo not given), the T/C (dose: 31.0 mg/kg/injection, schedule: Q01DX011 (ip), vehicle: water) is 51 % of control; the T/C (dose: 62.5 mg/kg/injection, schedule: Q01DX011 (ip), vehicle: water) is 52 % of control; the T/C (dose: 125.0 mg/kg/injection, schedule: Q01DX010 (ip), vehicle: water) was 41 % of control; the T/C (dose: 125.0 mg/kg/injection, schedule: Q01DX011 (ip), vehicle: water) is 69 % of control; the T/C (dose: 250.0 mg/kg/injection, schedule: Q01DX010 (ip), vehicle: water) is 49 % of control; the T/C (dose: 250.0 mg/kg/injection, schedule: Q01DX011 (ip), vehicle: water) is 30 % of control.

For the compound `CN(C)c1nc(N(C)C)nc(N(C)C)n1`, the T/C was 97 % of control (dose: 62.5 mg/kg/injection, schedule: Q01DX010 (ip), vehicle: carboxymethylcellulose (CMC)) and 58 % of control (dose: 250.0 mg/kg/injection, schedule: Q01DX010 (ip), vehicle: carboxymethylcellulose (CMC)).

On to `Nc1nc2n[nH]nc2c(=O)[nH]1`, for which the T/C is 113 % of control (dose: 12.5 mg/kg/injection, schedule: Q01DX010 (ip), vehicle: other); 58 % of control (dose: 75.0 mg/kg/injection, schedule: Q01DX010 (ip), vehicle: other); 83 % of control (dose: 100.0 mg/kg/injection, schedule: Q01DX010 (ip), vehicle: other).

On to `S=P(N1CC1)(N1CC1)N1CC1`, for which the T/C runs as follows: (dose: 0.63 mg/kg/injection, schedule: Q01DX010 (ip), vehicle: saline) 57 % of control; (dose: 1.25 mg/kg/injection, schedule: Q01DX010 (ip), vehicle: saline) 2 % of control.

Turning to `C[C@]12C=CC(=O)C=C1CC[C@@H]1[C@@H]2[C@@H](O)C[C@@]2(C)[C@H]1CC[C@]2(O)C(=O)CO`, the T/C (dose: 32.0 mg/kg/injection, schedule: Q01DX010 (sc), vehicle: steriod suspending solution) was 63 % of control.

Turning to `C[C@]12CC[C@H](OC3OC(CO)C(O)C(O)C3O)C[C@H]1CC[C@@H]1[C@@H]2CC[C@]2(C)[C@@H](C3=CCOC3=O)CC[C@]12O` (stereo not given in full), the T/C is 99 % of control (dose: 63.0 micrograms/kg/injection, schedule: Q01DX010 (ip), vehicle: saline); 93 % of control (dose: 125.0 micrograms/kg/injection, schedule: Q01DX010 (ip), vehicle: saline); 95 % of control (dose: 250.0 micrograms/kg/injection, schedule: Q01DX010 (ip), vehicle: saline).

On to `CC[C@]1(O)C[C@H]2CN(CCc3c([nH]c4ccccc34)[C@@](C(=O)OC)(c3cc4c(cc3OC)N(C=O)[C@H]3[C@@](O)(C(=O)OC)[C@H](OC(C)=O)[C@]5(CC)C=CCN6CC[C@]43[C@@H]65)C2)C1`, for which the T/C (dose: 0.12 mg/kg/injection, schedule: Q01DX010 (ip), vehicle: water) is 109 % of control; the T/C (dose: 0.5 mg/kg/injection, schedule: Q01DX010 (ip), vehicle: water) is 105 % of control; the T/C (dose: 31.0 micrograms/kg/injection, schedule: Q01DX010 (ip), vehicle: water) was 97 % of control; the T/C (dose: 62.0 micrograms/kg/injection, schedule: Q01DX010 (ip), vehicle: water) is 95 % of control; the T/C (dose: 125.0 micrograms/kg/injection, schedule: Q01DX010 (ip), vehicle: water) was 90 % of control; the T/C (dose: 250.0 micrograms/kg/injection, schedule: Q01DX010 (ip), vehicle: water) is 63 % of control.

Turning to `Cn1cnc([N+](=O)[O-])c1Sc1nc(N)nc2nc[nH]c12`, the T/C runs as follows: (dose: 0.5 mg/kg/injection, schedule: Q01DX010 (ip), vehicle: carboxymethylcellulose (CMC)) 71 % of control; (dose: 1.0 mg/kg/injection, schedule: Q01DX010 (ip), vehicle: carboxymethylcellulose (CMC)) 33 % of control; (dose: 2.0 mg/kg/injection, schedule: Q01DX010 (ip), vehicle: carboxymethylcellulose (CMC)) 30 % of control and 31 % of control; under setting [1], 2 % of control.

Turning to `COc1ccc(/C=N/NC(N)=S)cc1`, the T/C reads like this: (dose: 75.0 mg/kg/injection, schedule: Q01DX010 (ip), vehicle: saline) 87 % of control; (dose: 150.0 mg/kg/injection, schedule: Q01DX010 (ip), vehicle: saline) 99 % of control; (dose: 300.0 mg/kg/injection, schedule: Q01DX010 (ip), vehicle: saline) 82 % of control; (dose: 600.0 mg/kg/injection, schedule: Q01DX010 (ip), vehicle: saline) 85 % of control.

For `[I][Hg][CH2]C1COC([CH2][Hg][I])CO1` (stereo not given), the T/C by setting is: (dose: 3.75 mg/kg/injection, schedule: Q01DX010 (ip), vehicle: carboxymethylcellulose (CMC)) 87 % of control; (dose: 7.5 mg/kg/injection, schedule: Q01DX010 (ip), vehicle: carboxymethylcellulose (CMC)) 111 % of control; (dose: 15.0 mg/kg/injection, schedule: Q01DX010 (ip), vehicle: carboxymethylcellulose (CMC)) 104 % of control; (dose: 30.0 mg/kg/injection, schedule: Q01DX010 (ip), vehicle: carboxymethylcellulose (CMC)) 115 % of control.

Take `C[C@]12C=CC(=O)C=C1CC[C@@H]1[C@@H]2C(=O)C[C@@]2(C)[C@H]1CC[C@]2(O)C(=O)CO`: the T/C is, setting by setting: (dose: 6.3 mg/kg/injection, schedule: Q01DX010 (sc), vehicle: steriod suspending solution) 107 % of control; (dose: 12.5 mg/kg/injection, schedule: Q01DX010 (sc), vehicle: steriod suspending solution) 51 % of control; (dose: 100.0 mg/kg/injection, schedule: Q01DX010 (sc), vehicle: steriod suspending solution) 14 % of control.

With `CCOC(N)=O`, the T/C under setting [2] is 80 % of control and 95 % of control.

Regarding `CCN(CC)CCNc1ccc(C)c2sc3ccccc3c(=O)c12`, the T/C reads like this: (dose: 0.78 mg/kg/injection, schedule: Q01DX010 (ip), vehicle: methylcellulose (MC)) 150 % of control; (dose: 1.56 mg/kg/injection, schedule: Q01DX010 (ip), vehicle: methylcellulose (MC)) 194 % of control; (dose: 6.25 mg/kg/injection, schedule: Q01DX010 (ip), vehicle: methylcellulose (MC)) 27 % of control.

In the case of `CN(C)CC(=O)c1ccc(O)c(O)c1`, the T/C reads like this: (dose: 62.5 mg/kg/injection, schedule: Q01DX010 (ip), vehicle: saline) 99 % of control; under setting [2], 77 % of control; (dose: 500.0 mg/kg/injection, schedule: Q01DX010 (ip), vehicle: saline) 72 % of control and 86 % of control.
